How the values were obtained:
[1] = Briefly, various concentrations (1-to-3 series dilutions for 10 concentration levels from 40 μM with 0.5% final DMSO concentration) of hPXR agonist rifampicin, various concentrations of tested chemicals alone or combined with 5 μM of rifampicin, were added to the wells of white 384-well tissue culture-treated plates with 5,000 cells in 25 μl of phenol red-free DMEM supplemented with 5% charcoal/dextran-treated FBS and incubated for 24 h at 37° C. before luciferase assay using Steadylite HTS (PerkinElmer Life Sciences).; assay type: cell-based; details: HepG2

## COc1ccc(OC)c(-c2nc(C)c(C(=O)c3ccc(C(C)(C)C)cc3)n2C)c1
other
  IC50: 0.79 µM
[1]
  IC50: 3.1 µM

— ChEMBL document CHEMBL5728323, “1,4,5-substituted 1,2,3-triazole analogues as antagonists of the pregnane X receptor” (2021)
